In article PMC5754413, “Mass balance, metabolic disposition, and pharmacokinetics of a single oral dose of regorafenib in healthy human subjects” (Cancer Chemotherapy and Pharmacology, 2017):

Test: Safety assessments in healthy male subjects
Format: in vivo, human
Conditions: single 120 mg dose, four subjects
Experimental: Blood pressure, pulse rate, electrocardiogram, physical examination, urine drug screening, and adverse events were evaluated throughout the study. The investigator obtained and recorded all the observed or reported adverse events, the severity (mild, moderate, or severe) of the events, and the relationship to study drug (in the investigator’s opinion).

With CNC(=O)c1cc(Oc2ccc(NC(=O)Nc3ccc(Cl)c(C(F)(F)F)c3)c(F)c2)ccn1 [Regorafenib, 4-[4-({[4-chloro-3-(trifluoromethyl)phenyl]carbamoyl}amino)-3-fluorophenoxy]-N-methylpyridine-2-carboxamide] the “Electrocardiograms, laboratory investigations, and vital signs” value was “no clinically relevant changes” and the Treatment-emergent adverse events (event considered unrelated to study drug) was “mild, non-serious headache”.
